Tests used:
Oryctolagus cuniculus [1] = experiment: Cardiovascular activity in Albino rabbit assessed as change in heart rate tested at basal heart rate of 170 beats/min at 0.25 mg/kg, iv by physiograph 4; type: functional
Oryctolagus cuniculus [2] = experiment: Cardiovascular activity in Albino rabbit assessed as change in heart rate tested at basal heart rate of 170 beats/min at 0.50 mg/kg, iv by physiograph 4; type: functional; conditions: dose 0.5 mg/kg
Oryctolagus cuniculus [3] = experiment: Cardiovascular activity in Albino rabbit assessed as change in heart rate tested at basal heart rate of 170 beats/min at 1.0 mg/kg, iv by physiograph 4; type: functional
Oryctolagus cuniculus [4] = experiment: Cardiovascular activity in Albino rabbit assessed as change in heart rate tested at basal heart rate of 180 beats/min at 0.25 mg/kg, iv by physiograph 4; type: functional
Oryctolagus cuniculus [5] = experiment: Cardiovascular activity in Albino rabbit assessed as change in heart rate tested at basal heart rate of 180 beats/min at 0.50 mg/kg, iv by physiograph 4; type: functional; conditions: dose 0.5 mg/kg
Oryctolagus cuniculus [6] = experiment: Cardiovascular activity in Albino rabbit assessed as change in heart rate tested at basal heart rate of 180 beats/min at 1.0 mg/kg, iv by physiograph 4; type: functional
Oryctolagus cuniculus [7] = experiment: Cardiovascular activity in Albino rabbit assessed as change in heart rate tested at basal heart rate of 178 beats/min at 0.50 mg/kg, iv by physiograph 4; type: functional; conditions: dose 0.5 mg/kg
Oryctolagus cuniculus [8] = experiment: Cardiovascular activity in Albino rabbit assessed as change in heart rate tested at basal heart rate of 178 beats/min at 1.0 mg/kg, iv by physiograph 4; type: functional
Oryctolagus cuniculus [9] = experiment: Cardiovascular activity in Albino rabbit assessed as sinusoidal heart rate tested at basal heart rate of 180 beats/min at 0.05 mg/kg, iv by physiograph 4; type: functional
Oryctolagus cuniculus [10] = experiment: Cardiovascular activity in Albino rabbit assessed as change in heart rate tested at basal heart rate of 180 beats/min at 0.10 mg/kg, iv by physiograph 4; type: functional; conditions: dose 0.1 mg/kg
Oryctolagus cuniculus [11] = experiment: Cardiovascular activity in Albino rabbit assessed as change in heart rate tested at basal heart rate of 170 beats/min at 0.10 mg/kg, iv by physiograph 4; type: functional; conditions: dose 0.1 mg/kg
Oryctolagus cuniculus [12] = experiment: Cardiotoxicity in iv dosed Albino rabbit assessed as time to produce arrhythmias tested at basal heart rate of 170 beats/min; type: toxicity, organism-based; conditions: in vivo
Oryctolagus cuniculus [13] = experiment: Cardiotoxicity in iv dosed Albino rabbit assessed as drug level to produce arrhythmias tested at basal heart rate of 170 beats/min; type: toxicity, organism-based; conditions: in vivo
Oryctolagus cuniculus [14] = experiment: Cardiotoxicity in iv dosed Albino rabbit assessed as drug level to produce arrhythmias tested at basal heart rate of 180 beats/min; type: toxicity, organism-based; conditions: in vivo
Oryctolagus cuniculus [15] = experiment: Cardiotoxicity in iv dosed Albino rabbit assessed as time to produce arrhythmias tested at basal heart rate of 180 beats/min; type: toxicity, organism-based; conditions: in vivo
Oryctolagus cuniculus [16] = experiment: Cardiovascular activity in Albino rabbit assessed as change in heart rate tested at basal heart rate of 180 beats/min at 5.0 mg/kg, iv by physiograph 4; type: functional
Oryctolagus cuniculus [17] = experiment: Cardiovascular activity in Albino rabbit assessed as change in heart rate tested at basal heart rate of 195 beats/min at 0.10 mg/kg, iv by physiograph 4; type: functional; conditions: dose 0.1 mg/kg
Oryctolagus cuniculus [18] = experiment: Cardiovascular activity in Albino rabbit assessed as change in heart rate tested at basal heart rate of 195 beats/min at 0.25 mg/kg, iv by physiograph 4; type: functional
Oryctolagus cuniculus [19] = experiment: Cardiovascular activity in Albino rabbit assessed as change in heart rate tested at basal heart rate of 195 beats/min at 0.50 mg/kg, iv by physiograph 4; type: functional; conditions: dose 0.5 mg/kg
Oryctolagus cuniculus [20] = experiment: Cardiovascular activity in Albino rabbit assessed as change in heart rate tested at basal heart rate of 195 beats/min at 1.0 mg/kg, iv by physiograph 4; type: functional

Row | Structure (SMILES) | Activity (Oryctolagus cuniculus [1]) [bpm] | Activity (Oryctolagus cuniculus [2]) [bpm] | Activity (Oryctolagus cuniculus [3]) [bpm] | Activity (Oryctolagus cuniculus [4]) [bpm] | Activity (Oryctolagus cuniculus [5]) [bpm] | Activity (Oryctolagus cuniculus [6]) [bpm] | Activity (Oryctolagus cuniculus [9]) [bpm] | Activity (Oryctolagus cuniculus [10]) [bpm] | further results
1 | CCN1C[C@]2(COC(=O)c3ccccc3N)CC[C@H](OC)[C@]34C1[C@](O)([C@@H](OC)[C@H]23)[C@@]1(O)C[C@H](OC)[C@H]2C[C@@H]4[C@@H]1[C@H]2OC [ANTHRANOYLLYCOCTONINE] | 8 | 5 | -5 |  |  |  |  |  | 
2 | CCN1C[C@]2(COC(=O)c3ccccc3NC(=O)CCC(=O)OC)CC[C@H](OC)[C@@]34[C@@H]5C[C@H]6[C@H](OC)[C@@H]5[C@](O)(C[C@@H]6OC)[C@](O)([C@@H](OC)[C@H]23)[C@@H]14 [CASHMIRADELPHINE] |  |  |  | -5 | -5 | -20 | -5 | 5 | Activity (Oryctolagus cuniculus [7]): -8 bpm; Activity (Oryctolagus cuniculus [8]): -10 bpm
3 | CCN1C[C@]2(OC(=O)c3ccccc3N)CC[C@H](OC)[C@@]34[C@@H]2C[C@H]([C@@H]13)[C@@]1(O)C[C@H](OC)[C@H]2C[C@@H]4[C@]1(O)[C@H]2OC | 5 | 0 | 0 |  |  | 0 |  |  | Activity (Oryctolagus cuniculus [11]): 8 bpm; Activity (Oryctolagus cuniculus [12]): 52 s; Activity (Oryctolagus cuniculus [13]): 1 mg/kg; Activity (Oryctolagus cuniculus [14]): 1 mg/kg; Activity (Oryctolagus cuniculus [15]): 85 s
4 | CCN1C[C@]2(COC(=O)c3ccccc3NC(=O)CCC(N)=O)CC[C@H](OC)[C@@]34[C@@H]5C[C@H]6[C@H](OC)[C@@H]5[C@](O)(C[C@@H]6OC)[C@](O)([C@@H](OC)[C@H]23)[C@@H]14 [AVADHARIDINE] |  |  |  | 5 | 0 | 0 | 0 | 8 | Activity (Oryctolagus cuniculus [16]): -10 bpm
5 | CCN1C[C@]2(COC(=O)c3ccccc3N3C(=O)CCC3=O)CC[C@H](OC)[C@]34C1[C@](O)([C@@H](OC)[C@H]23)[C@@]1(O)C[C@H](OC)[C@H]2C[C@@H]4[C@@H]1[C@H]2OC [LYCACONITINE] |  |  |  | 0 | -10 |  |  | -10 | Activity (Oryctolagus cuniculus [17]): 3 bpm; Activity (Oryctolagus cuniculus [18]): 5 bpm; Activity (Oryctolagus cuniculus [19]): 0 bpm; Activity (Oryctolagus cuniculus [20]): -5 bpm
